Source: patent publication EP4467141A1, “PYRAZOLO-QUINOLINES AS SELECTIVE INHIBITORS OF GENOTOXIC STRESS-INDUCED IKK/NF- KB PATHWAYS FOR CANCER THERAPY” (Max-Delbrück-Centrum für Molekulare Medizin in der …, priority 2023, dated 2024)

How the values were obtained:
Test in all cases: Kinase panel study
Assay type in all cases: biochemical
Conditions in all cases: read-out: Percentage of inhibition; for inhibition at 1 µM: 1000nM; for inhibition at 10 µM: 10000nM
[1] = molecular target: T1, ERBB2 (HER2) (Homo sapiens, UniProt P04626)
T1 construct: purchased Thermo Fisher Scientific
T1 sequence (P04626 23-1255): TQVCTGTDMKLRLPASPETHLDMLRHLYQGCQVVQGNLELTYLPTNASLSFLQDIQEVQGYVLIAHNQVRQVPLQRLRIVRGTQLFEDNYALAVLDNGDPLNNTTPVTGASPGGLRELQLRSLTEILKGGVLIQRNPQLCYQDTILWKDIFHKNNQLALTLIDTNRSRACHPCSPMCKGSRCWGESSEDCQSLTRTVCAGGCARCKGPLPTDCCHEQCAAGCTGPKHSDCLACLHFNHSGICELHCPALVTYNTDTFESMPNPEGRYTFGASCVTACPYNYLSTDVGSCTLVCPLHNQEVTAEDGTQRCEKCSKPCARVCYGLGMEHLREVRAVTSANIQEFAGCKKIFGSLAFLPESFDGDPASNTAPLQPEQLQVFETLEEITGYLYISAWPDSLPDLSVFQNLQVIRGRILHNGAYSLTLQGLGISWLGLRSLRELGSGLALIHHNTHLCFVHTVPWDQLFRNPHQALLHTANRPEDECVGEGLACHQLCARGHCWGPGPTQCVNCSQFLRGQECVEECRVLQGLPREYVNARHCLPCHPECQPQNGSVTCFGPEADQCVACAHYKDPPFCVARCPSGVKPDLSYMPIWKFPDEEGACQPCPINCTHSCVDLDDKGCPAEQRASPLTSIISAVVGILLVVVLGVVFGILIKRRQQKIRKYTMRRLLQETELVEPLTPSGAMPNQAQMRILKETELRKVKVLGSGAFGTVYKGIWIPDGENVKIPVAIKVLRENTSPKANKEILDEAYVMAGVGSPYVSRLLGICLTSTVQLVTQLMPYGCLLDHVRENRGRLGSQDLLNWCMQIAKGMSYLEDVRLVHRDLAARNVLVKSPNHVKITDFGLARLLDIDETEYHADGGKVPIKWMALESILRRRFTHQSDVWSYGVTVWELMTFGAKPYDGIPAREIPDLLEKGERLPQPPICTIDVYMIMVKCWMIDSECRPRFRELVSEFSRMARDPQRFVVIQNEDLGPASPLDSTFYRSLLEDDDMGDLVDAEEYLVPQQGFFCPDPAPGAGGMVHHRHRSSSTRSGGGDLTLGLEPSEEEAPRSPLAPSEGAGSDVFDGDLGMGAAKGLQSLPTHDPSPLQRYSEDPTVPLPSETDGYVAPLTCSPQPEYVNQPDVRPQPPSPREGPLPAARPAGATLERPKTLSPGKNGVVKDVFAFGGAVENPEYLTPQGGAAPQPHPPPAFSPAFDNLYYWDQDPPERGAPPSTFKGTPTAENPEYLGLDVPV
How it was run: (§1)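 Readout is percentage kinase inhibition. Testing used 1 µM or 10 µM compound in externally run ZLyte/Adapta in vitro assays, and IC50 values were derived within the same panel.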

[2] = molecular target: T2, FGR (Homo sapiens, UniProt P09769)
T2 construct: purchased Thermo Fisher Scientific
T2 sequence (P09769 whole entry): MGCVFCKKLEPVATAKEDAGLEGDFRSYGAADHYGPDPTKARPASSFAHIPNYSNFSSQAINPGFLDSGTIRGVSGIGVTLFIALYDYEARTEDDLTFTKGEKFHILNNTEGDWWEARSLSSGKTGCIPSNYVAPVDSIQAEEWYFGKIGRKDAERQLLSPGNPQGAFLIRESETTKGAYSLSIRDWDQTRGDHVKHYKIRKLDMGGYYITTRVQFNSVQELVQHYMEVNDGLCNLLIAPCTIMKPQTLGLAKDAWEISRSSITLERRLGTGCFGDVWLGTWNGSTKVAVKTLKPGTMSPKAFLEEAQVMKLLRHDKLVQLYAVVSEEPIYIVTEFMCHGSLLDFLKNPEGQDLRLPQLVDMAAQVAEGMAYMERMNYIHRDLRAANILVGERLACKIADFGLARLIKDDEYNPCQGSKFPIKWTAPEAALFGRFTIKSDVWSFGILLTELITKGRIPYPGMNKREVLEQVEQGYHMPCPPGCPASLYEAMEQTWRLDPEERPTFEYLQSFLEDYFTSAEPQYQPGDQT
How it was run: as §1

[3] = molecular target: T3, LRRK2 G2019S FL (Homo sapiens, UniProt Q5S007, G2019S)
T3 construct: LRRK2 G2019S FL; purchased Thermo Fisher Scientific
T3 sequence (Q5S007 whole entry G2019S): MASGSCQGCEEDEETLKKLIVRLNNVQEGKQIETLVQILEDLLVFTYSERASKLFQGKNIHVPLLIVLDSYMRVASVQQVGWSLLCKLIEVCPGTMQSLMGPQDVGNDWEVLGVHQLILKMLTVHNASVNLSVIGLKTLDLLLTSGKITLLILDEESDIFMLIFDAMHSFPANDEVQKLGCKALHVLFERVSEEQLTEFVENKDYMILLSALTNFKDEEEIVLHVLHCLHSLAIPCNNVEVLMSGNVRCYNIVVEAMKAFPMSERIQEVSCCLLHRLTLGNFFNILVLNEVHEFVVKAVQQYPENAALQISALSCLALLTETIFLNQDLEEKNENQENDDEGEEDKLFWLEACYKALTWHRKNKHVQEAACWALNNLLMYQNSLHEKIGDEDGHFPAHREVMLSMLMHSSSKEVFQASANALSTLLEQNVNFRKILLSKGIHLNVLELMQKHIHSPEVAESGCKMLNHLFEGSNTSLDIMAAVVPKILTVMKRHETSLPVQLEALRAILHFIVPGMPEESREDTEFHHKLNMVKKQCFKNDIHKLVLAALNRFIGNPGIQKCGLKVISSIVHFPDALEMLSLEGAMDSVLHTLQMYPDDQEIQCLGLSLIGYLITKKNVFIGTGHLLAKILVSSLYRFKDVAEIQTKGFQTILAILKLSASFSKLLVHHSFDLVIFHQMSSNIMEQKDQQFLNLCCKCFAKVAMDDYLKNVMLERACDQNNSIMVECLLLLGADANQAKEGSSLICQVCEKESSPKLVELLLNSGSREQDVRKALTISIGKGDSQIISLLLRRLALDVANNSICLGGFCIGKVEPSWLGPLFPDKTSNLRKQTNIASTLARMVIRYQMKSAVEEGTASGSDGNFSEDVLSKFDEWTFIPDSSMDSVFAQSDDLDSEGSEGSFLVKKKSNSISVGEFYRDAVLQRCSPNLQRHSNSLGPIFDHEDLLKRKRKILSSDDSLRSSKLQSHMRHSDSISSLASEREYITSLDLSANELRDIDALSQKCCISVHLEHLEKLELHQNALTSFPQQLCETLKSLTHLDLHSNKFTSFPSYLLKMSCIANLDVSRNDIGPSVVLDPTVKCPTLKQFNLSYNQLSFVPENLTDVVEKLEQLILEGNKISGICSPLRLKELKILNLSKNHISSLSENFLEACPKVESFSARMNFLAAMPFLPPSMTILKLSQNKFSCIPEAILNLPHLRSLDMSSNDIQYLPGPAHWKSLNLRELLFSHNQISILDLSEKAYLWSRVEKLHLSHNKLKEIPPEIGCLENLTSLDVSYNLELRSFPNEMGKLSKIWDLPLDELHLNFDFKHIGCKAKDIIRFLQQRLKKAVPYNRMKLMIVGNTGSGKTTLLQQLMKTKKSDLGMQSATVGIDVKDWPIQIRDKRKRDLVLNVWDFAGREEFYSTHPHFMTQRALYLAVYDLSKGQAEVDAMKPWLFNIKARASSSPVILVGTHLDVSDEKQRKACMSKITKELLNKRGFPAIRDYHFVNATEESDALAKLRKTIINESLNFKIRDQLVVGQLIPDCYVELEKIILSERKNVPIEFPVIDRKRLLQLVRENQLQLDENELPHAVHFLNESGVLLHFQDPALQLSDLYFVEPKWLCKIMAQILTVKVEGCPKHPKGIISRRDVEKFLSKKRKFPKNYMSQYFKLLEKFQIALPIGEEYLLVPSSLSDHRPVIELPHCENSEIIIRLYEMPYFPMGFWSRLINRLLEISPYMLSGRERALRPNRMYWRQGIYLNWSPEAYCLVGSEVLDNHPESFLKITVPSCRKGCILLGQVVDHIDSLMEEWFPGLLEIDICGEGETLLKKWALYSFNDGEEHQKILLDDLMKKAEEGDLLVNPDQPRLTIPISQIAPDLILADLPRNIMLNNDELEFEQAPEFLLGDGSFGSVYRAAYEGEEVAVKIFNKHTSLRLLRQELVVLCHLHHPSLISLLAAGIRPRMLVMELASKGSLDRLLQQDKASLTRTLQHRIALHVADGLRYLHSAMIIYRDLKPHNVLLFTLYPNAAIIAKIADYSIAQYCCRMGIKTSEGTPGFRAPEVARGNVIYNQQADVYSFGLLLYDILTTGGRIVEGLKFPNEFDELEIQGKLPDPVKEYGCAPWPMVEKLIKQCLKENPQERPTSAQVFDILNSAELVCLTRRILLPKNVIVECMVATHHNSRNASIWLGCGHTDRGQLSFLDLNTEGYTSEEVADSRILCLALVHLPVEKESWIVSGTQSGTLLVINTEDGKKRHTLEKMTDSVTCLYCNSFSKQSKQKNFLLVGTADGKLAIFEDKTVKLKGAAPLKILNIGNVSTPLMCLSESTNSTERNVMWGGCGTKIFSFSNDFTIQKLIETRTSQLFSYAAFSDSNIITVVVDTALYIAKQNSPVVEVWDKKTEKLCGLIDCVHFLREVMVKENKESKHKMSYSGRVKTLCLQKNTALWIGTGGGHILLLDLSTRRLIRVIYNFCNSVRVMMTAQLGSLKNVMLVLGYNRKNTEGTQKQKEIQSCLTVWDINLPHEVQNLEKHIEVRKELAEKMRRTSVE
How it was run: as §1

[4] = molecular target: T4, MARK4 (Homo sapiens, UniProt Q96L34)
T4 construct: purchased Thermo Fisher Scientific
T4 sequence (Q96L34 1-752): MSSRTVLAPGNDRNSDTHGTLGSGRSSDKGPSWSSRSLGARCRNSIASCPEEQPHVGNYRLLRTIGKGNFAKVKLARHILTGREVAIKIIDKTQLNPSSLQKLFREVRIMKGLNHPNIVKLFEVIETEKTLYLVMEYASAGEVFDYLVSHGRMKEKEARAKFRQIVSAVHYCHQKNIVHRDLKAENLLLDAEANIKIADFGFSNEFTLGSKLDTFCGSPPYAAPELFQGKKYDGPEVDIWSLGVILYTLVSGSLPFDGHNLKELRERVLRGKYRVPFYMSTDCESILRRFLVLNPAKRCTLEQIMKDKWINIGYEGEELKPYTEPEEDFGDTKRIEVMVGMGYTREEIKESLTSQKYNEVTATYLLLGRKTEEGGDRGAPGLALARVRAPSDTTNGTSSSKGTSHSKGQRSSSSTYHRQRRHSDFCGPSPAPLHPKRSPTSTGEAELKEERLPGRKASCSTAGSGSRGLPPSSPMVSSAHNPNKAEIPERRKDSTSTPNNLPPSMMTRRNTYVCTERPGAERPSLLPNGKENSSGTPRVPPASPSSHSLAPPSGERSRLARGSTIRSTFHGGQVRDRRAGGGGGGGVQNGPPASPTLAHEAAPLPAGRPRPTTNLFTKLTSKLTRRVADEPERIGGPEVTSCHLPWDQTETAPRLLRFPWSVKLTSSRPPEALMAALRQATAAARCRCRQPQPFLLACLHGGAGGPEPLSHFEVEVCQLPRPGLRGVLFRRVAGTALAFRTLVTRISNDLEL
How it was run: as §1

[5] = molecular target: T5, PHKG2 (Homo sapiens, UniProt P15735)
T5 construct: purchased Thermo Fisher Scientific
T5 sequence (P15735 1-406): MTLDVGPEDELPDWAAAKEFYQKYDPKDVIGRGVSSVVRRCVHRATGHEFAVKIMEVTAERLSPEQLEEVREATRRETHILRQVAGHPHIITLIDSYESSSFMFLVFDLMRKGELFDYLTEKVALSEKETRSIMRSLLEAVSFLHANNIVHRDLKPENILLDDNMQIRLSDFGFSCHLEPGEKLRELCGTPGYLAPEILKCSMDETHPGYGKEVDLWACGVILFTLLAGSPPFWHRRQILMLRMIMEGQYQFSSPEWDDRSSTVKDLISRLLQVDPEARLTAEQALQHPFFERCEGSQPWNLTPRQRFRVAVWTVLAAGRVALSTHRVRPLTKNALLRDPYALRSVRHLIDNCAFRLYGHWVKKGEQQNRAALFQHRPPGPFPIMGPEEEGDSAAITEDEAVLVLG
How it was run: as §1

[6] = molecular target: T6, PTK2B (FAK2) (Homo sapiens, UniProt Q14289)
T6 construct: purchased Thermo Fisher Scientific
How it was run: as §1

[7] = molecular target: T7, TEK (TIE2) Y897S (Homo sapiens, UniProt Q02763, Y897S)
T7 construct: purchased Thermo Fisher Scientific
How it was run: as §1

[8] = molecular target: T8, TXK (Homo sapiens, UniProt P42681)
T8 construct: purchased Thermo Fisher Scientific
T8 sequence (P42681 1-527): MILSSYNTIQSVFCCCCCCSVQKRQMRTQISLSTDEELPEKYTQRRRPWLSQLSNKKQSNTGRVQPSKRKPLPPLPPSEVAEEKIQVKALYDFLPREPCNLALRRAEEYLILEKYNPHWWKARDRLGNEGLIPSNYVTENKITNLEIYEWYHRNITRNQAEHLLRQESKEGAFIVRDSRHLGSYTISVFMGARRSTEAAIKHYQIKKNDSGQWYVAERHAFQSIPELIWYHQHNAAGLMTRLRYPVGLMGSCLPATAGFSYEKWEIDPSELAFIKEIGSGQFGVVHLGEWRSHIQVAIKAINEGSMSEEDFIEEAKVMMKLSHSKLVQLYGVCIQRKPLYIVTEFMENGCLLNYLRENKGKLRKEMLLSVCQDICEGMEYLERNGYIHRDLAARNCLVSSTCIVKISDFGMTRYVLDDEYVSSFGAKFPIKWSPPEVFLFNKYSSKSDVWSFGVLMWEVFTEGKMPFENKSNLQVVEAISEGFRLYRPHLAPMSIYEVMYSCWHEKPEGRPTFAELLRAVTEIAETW
How it was run: as §1

SMILES	inhibition at 1 µM [1]	inhibition at 10 µM [1]	inhibition at 1 µM [2]	inhibition at 10 µM [2]	inhibition at 1 µM [3]	inhibition at 10 µM [3]	inhibition at 1 µM [4]	inhibition at 10 µM [4]	inhibition at 1 µM [5]	inhibition at 10 µM [5]	inhibition at 1 µM [6]	inhibition at 10 µM [6]	inhibition at 1 µM [7]	inhibition at 10 µM [7]	inhibition at 1 µM [8]	inhibition at 10 µM [8]
COc1ccc2c(c1OC)c(=O)n1c3ccc(O)cc3c3ccnc2c31 [MW01, 5-Hydroxy-10,11-dimethoxy-9H-benzo[c]indolo[3,2,1-ij][1,5]naphthyridin-9-one]	2%	4%	10%	26%	87%	90%	9%	15%	6%	8%	2%	9%	-14%	-10%	12%	29%
COc1ccc2cc3c(N)nn(C(=O)c4cccc(N(C)C)c4)c3nc2c1 [MW05, (3-Amino-7-methoxypyrazolo[3,4-b]quinolin-1-yl)-[3-(dimethylamino)phenyl]methanone]	-5%	-19%	5%	15%	-1%	11%	-3%	-10%	6%	-3%	-2%	-7%	-18%	-11%	4%	-13%
